From US20130053435A1, “Methods of Treating Alcohol Intoxication, Alcohol Use Disorders and Alcohol Abuse Which Comprises the Administration of Dihydromyricetin” (priority 2011, published 2013)

System: T1, GABAARs
T1 construct: rows headed: effect on GABAAR-currents; effect on GABAAR-currents; other: zolpidem 0.3 μM, DGCs of EtOH group
Experiment: Whole-cell patch-clamp, DGCs in hippocampal slices 48 hr after in vivo treatment
Type: cell-based, rat
Conditions: zolpidem 0.3 μM
Protocol: Transverse slices (400 μm) of dorsal hippocampus were obtained with a Vibratome (VT 100, Technical Products International, St. Louis, Mo.) and standard techniques known in the art. Slices were continuously perfused with artificial cerebrospinal fluid (ACSF). See Liang, J., et al. (2007) J Neurosci 27:12367-12377.
Whole-cell patch-clamp recordings were obtained at 34±0.5° C. from cells located in the DG layer at a holding potential of −70 mV, during perfusion with artificial cerebrospinal fluid (ACSF, 125 mM NaCl, 2.5 mM KCl, 2 mM CaCl2, 2 mM MgCl2, 26 mM NaHCO3, and 10 mM D-glucose). The ACSF was continuously bubbled with 95% O2-5% CO2 to ensure adequate oxygenation of slices and a pH of 7.4. Patch electrodes were pulled from thin-wall borosilicate glass pipettes with resistances of 7.5-9 MΩ and were filled with pipette solution (i.e. 137 mM CsCl, 2 mM MgCl2, 1 mM CaCl2, 11 mM EGTA, 10 mM HEPES and 3 mM ATP, pH adjusted to 7.30 with CsOH). Signals were recorded in voltage-clamp mode with a […] amplifier (Molecular Devices, Sunnyvale, Calif.). Whole cell access resistances were in the range of <25 MΩ before electrical compensation by about 70%. During voltage-clamp recordings, access resistance was monitored by measuring the size of the capacitative transient in response to a 5 mV step command and the data were abandoned if changes >20% were encountered. At least 10 min was allowed for equilibration of the pipette solution with the intracellular milieu before commencing mIPSC recordings. Intracellular signal was low-pass filtered at 3 kHz and data were acquired with Digidata 1440A and software CLAMPEX 10 (Molecular Devices) at a sampling frequency of 20 kHz.
Pharmacologically-isolated GABAAR-mediated mIPSCs were recorded as previously described (Liang (2007) and Shen (2011)). […] Data were analyzed using the Clampfit (Version 9.0, Molecular Devices) and the MiniAnalysis Program (versions 6.0.7, Synaptosoft, Decatur, Ga.).
The MiniAnalysis program (Synaptosoft, Decatur, Ga.) was used to analyze mIPSCs. Itonic is the averaged baseline currents of a given recording period. Itonic amplitude was calculated as the difference between the holding currents measured before and after picrotoxin (100 μM) or bicuculline (10 μM). See Wei, W., et al. (2004) J Neurosci 24, 8379-8382; Liang (2007); and Shen (2011). Briefly, the recordings were low-pass filtered off-line (Clampfit software) at 2 kHz. The mIPSCs were detected (Mini Analysis Program, version 6.0.7) with threshold criteria of 8 pA amplitude and 20 pA*ms charge transfer. The frequency of mIPSCs was determined from all automatically detected events in a given 100 s recording period. For kinetic analysis, only single event mIPSCs with a stable baseline, sharp rising phase (10 to 90% rise time), and exponential decay were chosen during visual inspection of the recording trace. Double and multiple peak mIPSCs were excluded. At least 100 individual mIPSC events were recorded under each experimental condition. The mIPSC kinetics was obtained from analysis of the averaged chosen single events aligned with half rise time in each cell. Decay time constants were obtained by fitting a double exponential to the falling phase of the averaged mIPSCs. Itonic magnitudes were obtained from the averaged baseline current of a given recording period. Itonic amplitude was calculated as the difference between the holding currents measured before and after the application of picrotoxin (50 μM) or bicuculline (10 μM). See Liang J et al (2007); Shen (2011); Hamann (2002); and Mangan P S, et al. (2005) Mol Pharmacol 67(3):775-788. The investigator performing the recordings and mIPSC analysis was blind to the treatment (vehicle, EtOH, E+D, or D) that the rats received.
After 48 hr withdrawal, whole-cell GABAAR-mediated currents were recorded on DGCs in hippocampal slices. In the vehicle group, bath application of EtOH (60 mM) enhanced Itonic from 28.8±3.1 to 62.1±3.3 pA (FIG. 13, panels A, G). […]

## Cc1ccc(-c2nc3ccc(C)cn3c2CC(=O)N(C)C)cc1 [Zolpidem, zolpidem, reference compound]
DGCs of DHM group as in vehicle group
  effect on GABAAR-currents: potentiation
DGCs of EtOH group
  effect on GABAAR-currents: did not affect GABAAR-currents
